Measured values taken from US12440496B2, “Natriuretic peptide receptor a agonists useful for the treatment of cardiometabolic diseases, kidney disease and diabetes” (Merck Sharp & Dohme LLC, priority 2019, dated 2025).

These compounds were tested against T1, hNPRA (Homo sapiens, UniProt P16066) (assay: NPRA Functional Cell Assay (cGMP HTRF, NPRA HEK JumpIn stable cells)). Details: cGMP production, 1 hour at 37° C., 10-point dose response.
T1 construct: expressed in transfected cells
T1 sequence (P16066 33-1061): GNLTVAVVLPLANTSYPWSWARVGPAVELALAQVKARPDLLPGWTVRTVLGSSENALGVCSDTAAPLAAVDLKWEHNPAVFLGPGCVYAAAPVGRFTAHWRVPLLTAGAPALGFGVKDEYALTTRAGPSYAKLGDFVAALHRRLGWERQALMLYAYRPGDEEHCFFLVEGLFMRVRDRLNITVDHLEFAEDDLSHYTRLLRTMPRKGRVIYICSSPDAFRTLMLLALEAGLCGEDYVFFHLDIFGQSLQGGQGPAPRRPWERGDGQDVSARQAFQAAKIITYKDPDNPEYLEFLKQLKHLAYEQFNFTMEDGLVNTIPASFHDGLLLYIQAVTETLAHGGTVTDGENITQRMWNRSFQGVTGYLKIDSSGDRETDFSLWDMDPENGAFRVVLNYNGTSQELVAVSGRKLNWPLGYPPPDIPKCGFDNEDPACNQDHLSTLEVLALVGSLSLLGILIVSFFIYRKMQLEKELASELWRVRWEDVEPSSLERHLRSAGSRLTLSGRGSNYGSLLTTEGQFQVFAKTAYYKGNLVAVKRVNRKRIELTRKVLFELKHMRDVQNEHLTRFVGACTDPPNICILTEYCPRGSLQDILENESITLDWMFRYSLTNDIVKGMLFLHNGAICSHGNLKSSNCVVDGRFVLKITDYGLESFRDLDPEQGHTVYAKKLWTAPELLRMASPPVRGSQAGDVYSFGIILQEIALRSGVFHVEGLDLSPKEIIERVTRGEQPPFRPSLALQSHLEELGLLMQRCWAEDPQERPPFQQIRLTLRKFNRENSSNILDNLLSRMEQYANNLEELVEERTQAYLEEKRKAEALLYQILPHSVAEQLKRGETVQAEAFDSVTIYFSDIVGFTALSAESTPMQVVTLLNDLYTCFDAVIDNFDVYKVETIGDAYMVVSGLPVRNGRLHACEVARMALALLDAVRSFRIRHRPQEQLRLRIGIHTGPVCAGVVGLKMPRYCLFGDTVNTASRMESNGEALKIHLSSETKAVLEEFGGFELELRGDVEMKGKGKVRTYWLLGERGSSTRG
Type: cell-based
In short: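 cGMP HTRF read-out after 1 hour compound treatment at 37° C. of human NPRA-expressing HEK JumpIn cells, 1500 cells/well, in buffer with phosphodiesterase inhibitors IBMX and RO20 (100 uM each). Signal converted to [cGMP] by calibration curve; EC50s fitted by 4-parameter logistic; 50 nM h-ANP as positive response.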

Row | SMILES | EC50 [µM]
1 | CC(C)(C)[C@H]1CCc2nc3sc(C(=O)N[C@H](CCN)c4ccccc4)cc3cc2C1 [Example 229, (S)-N-((R)-3-amino-1-phenylpropyl)-6-(tert-butyl)-5,6,7,8-tetrahydrothieno[2,3-b]quinoline-2-carboxamide] | > 2
2 | CC(C)(C)[C@H]1CCc2nc3sc(C(=O)N[C@H](CCN4CCC(O)CC4)c4ccc(N5CCOC5=O)cc4)nc3cc2C1 [Example 230, (S)-7-(tert-butyl)-N-((R)-3-(4-hydroxypiperidin-1-yl)-1-(4-(2-oxooxazolidin-3-yl)phenyl)propyl)-5,6,7,8-tetrahydrothiazolo[5,4-b]quinoline-2-carboxamide] | 1.02
3 | CC1([C@H]2CCc3nc4sc(C(=O)N[C@H](CCN5CCC(O)CC5)c5ccc(N6CCOC6=O)cc5)nc4cc3C2)CC1 [Example 231, (S)-N-((R)-3-(4-hydroxypiperidin-1-yl)-1-(4-(2-oxooxazolidin-3-yl)phenyl)propyl)-7-(1-methylcyclopropyl)-5,6,7,8-tetrahydrothiazolo[5,4-b]quinoline-2-carboxamide] | 0.725
4 | O=C(N[C@H](CCN1CCC(O)CC1)c1ccc(N2CCOC2=O)cc1)c1nc2cc3c(nc2s1)CC[C@H](C1(C(F)(F)F)CC1)C3 [Example 232, (S)-N-((R)-3-(4-hydroxypiperidin-1-yl)-1-(4-(2-oxooxazolidin-3-yl)phenyl)propyl)-7-(1-(trifluoromethyl)cyclopropyl)-5,6,7,8-tetrahydrothiazolo[5,4-b]quinoline-2-carboxamide] | 2.2
5 | CC(C)C1(F)CCc2nc3sc(C(=O)N[C@H](CCN4CCC(O)CC4)c4ccc(N5CCOC5=O)cc4)nc3cc2C1 (stereo partly drawn) [Example 233, 7-fluoro-N-((R)-3-(4-hydroxypiperidin-1-yl)-1-(4-(2-oxooxazolidin-3-yl)phenyl)propyl)-7-isopropyl-5,6,7,8-tetrahydrothiazolo[5,4-b]quinoline-2-carboxamide] | 2.04
6 | CC1([C@H]2CCc3nc4sc(C(=O)N[C@H](CCN5CCC(O)CC5)c5ccc(-c6c[nH]c(=O)c(F)c6)cc5)nc4cc3C2)CC1 [Example 234, (S)-N-((R)-1-(4-(5-fluoro-6-oxo-1,6-dihydropyridin-3-yl)phenyl)-3-(4-hydroxypiperidin-1-yl)propyl)-7-(1-methylcyclopropyl)-5,6,7,8-tetrahydrothiazolo[5,4-b]quinoline-2-carboxamide] | 0.12
7 | O=C(N[C@H](CCN1CCC(O)CC1)c1ccc(-c2cnc(O)c(F)c2)cc1)c1nc2cc3c(nc2s1)CC[C@H](C1(C(F)(F)F)CC1)C3 [Example 235, (S)-N-((R)-1-(4-(5-fluoro-6-oxo-1,6-dihydropyridin-3-yl)phenyl)-3-(4-hydroxypiperidin-1-yl)propyl)-7-(1-(trifluoromethyl)cyclopropyl)-5,6,7,8-tetrahydrothiazolo[5,4-b]quinoline-2-carboxamide] | 0.56
8 | CC(C)(C)[C@H]1CCc2nc3sc(C(=O)N[C@H](CCN4CCC(O)CC4)c4ccc(-c5c[nH]c(=O)c(F)c5)cc4)nc3cc2C1 [Example 236, (S)-7-(tert-butyl)-N-((R)-1-(4-(5-fluoro-6-oxo-1,6-dihydropyridin-3-yl)phenyl)-3-(4-hydroxypiperidin-1-yl)propyl)-5,6,7,8-tetrahydrothiazolo[5,4-b]quinoline-2-carboxamide] | 0.14
9 | CC(C)(C)[C@H]1CCc2nc3sc(C(=O)N[C@H](CCN4CCCCC4)c4ccc(-c5cnc(O)c(F)c5)cc4)cc3cc2C1 [Example 238, (S)-6-(tert-butyl)-N-((R)-1-(4-(5-fluoro-6-hydroxypyridin-3-yl)phenyl)-3-(piperidin-1-yl)propyl)-5,6,7,8-tetrahydrothieno[2,3-b]quinoline-2-carboxamide] | 0.235
10 | Cc1cc(-c2ccc([C@@H](CCN3CCCCC3)NC(=O)c3cc4cc5c(nc4s3)CC[C@H](C(C)(C)C)C5)cc2)cnc1O [Example 239, (6S)-6-tert-butyl-N-{(1R)-1-[4-(6-hydroxy-5-methylpyridin-3-yl)phenyl]-3-piperidin-1-ylpropyl}-5,6,7,8-tetrahydrothieno[2,3-b]quinoline-2-carboxamide] | 1.4
11 | Cc1nc(O)ccc1-c1ccc([C@@H](CCN2CCCCC2)NC(=O)c2cc3cc4c(nc3s2)CC[C@H](C(C)(C)C)C4)cc1 [Example 240, (6S)-6-tert-butyl-N-{(1R)-1-[4-(6-hydroxy-2-methylpyridin-3-yl)phenyl]-3-piperidin-1-ylpropyl}-5,6,7,8-tetrahydrothieno[2,3-b]quinoline-2-carboxamide] | 1.66
12 | CC(C)(C)[C@H]1CCc2nc3sc(C(=O)N[C@H](CCN4CCCCC4)c4ccc(-c5cnc(O)c(N)c5)cc4)cc3cc2C1 [Example 241, (6S)-N-{(1R)-1-[4-(5-amino-6-hydroxypyridin-3-yl)phenyl]-3-piperidin-1-ylpropyl}-6-tert-butyl-5,6,7,8-tetrahydrothieno[2,3-b]quinoline-2-carboxamide] | 1.73
13 | CC(C)(C)[C@H]1CCc2nc3sc(C(=O)NC(CCN4CCCCC4)c4ccccc4)cc3cc2C1 (stereo partly drawn) [Example 242, (6S)-6-tert-butyl-N-(1-phenyl-3-piperidin-1-ylpropyl)-5,6,7,8-tetrahydrothieno[2,3-b]quinoline-2-carboxamide] | 1.87
14 | CC(C)(C)[C@H]1CCc2nc3sc(C(=O)NC(CCN4CCOCC4)c4ccccc4)cc3cc2C1 (stereo partly drawn) [Example 243, (6S)-6-tert-butyl-N-(3-morpholin-4-yl-1-phenylpropyl)-5,6,7,8-tetrahydrothieno[2,3-b]quinoline-2-carboxamide] | 6.32
15 | CCN(CC)CCC(NC(=O)c1cc2cc3c(nc2s1)CC[C@H](C(C)(C)C)C3)c1ccccc1 (stereo partly drawn) [Example 244, (6S)-6-tert-butyl-N-[3-(diethylamino)-1-phenylpropyl]-5,6,7,8-tetrahydrothieno[2,3-b]quinoline-2-carboxamide] | 2.2
16 | CC(C)(C)[C@H]1CCc2nc3sc(C(=O)NC(CCN4CCNCC4)c4ccccc4)cc3cc2C1 (stereo partly drawn) [Example 245, (6S)-6-tert-butyl-N-(1-phenyl-3-piperazin-1-ylpropyl)-5,6,7,8-tetrahydrothieno[2,3-b]quinoline-2-carboxamide] | 6.32
17 | CC(C)(C)[C@H]1CCc2nc3sc(C(=O)N[C@H](CCNC4CCOCC4)c4ccccc4)cc3cc2C1 [Example 248, (6S)-6-tert-butyl-N-[(1R)-1-phenyl-3-(tetrahydro-2H-pyran-4-ylamino)propyl]-5,6,7,8-tetrahydrothieno[2,3-b]quinoline-2-carboxamide] | 6.32
18 | CC(C)(C)[C@H]1CCc2nc3sc(C(=O)N[C@H](CCN4CCC(O)CC4)c4ccccc4)cc3cc2C1 [Example 250, (6S)-6-tert-butyl-N-[(1R)-3-(4-hydroxypiperidin-1-yl)-1-phenylpropyl]-5,6,7,8-tetrahydrothieno[2,3-b]quinoline-2-carboxamide] | 0.632
19 | CC(C)(C)[C@H]1CCc2nc3sc(C(=O)N[C@H](CCN4CCCC(O)C4)c4ccccc4)cc3cc2C1 (stereo partly drawn) [Example 251, (6S)-6-tert-butyl-N-[(1R)-3-(3-hydroxypiperidin-1-yl)-1-phenylpropyl]-5,6,7,8-tetrahydrothieno[2,3-b]quinoline-2-carboxamide] | 0.632
20 | CC(C)(C)[C@H]1CCc2nc3sc(C(=O)N[C@H](CCN4CCC(F)CC4)c4ccccc4)cc3cc2C1 [Example 252, (6S)-6-tert-butyl-N-[(1R)-3-(4-fluoropiperidin-1-yl)-1-phenylpropyl]-5,6,7,8-tetrahydrothieno[2,3-b]quinoline-2-carboxamide] | 6.3
21 | CC(C)(C)[C@H]1CCc2nc3sc(C(=O)N[C@H](CCN4CCCC4)c4ccccc4)cc3cc2C1 [Example 253, (6S)-6-tert-butyl-N-[(1R)-1-phenyl-3-pyrrolidin-1-ylpropyl]-5,6,7,8-tetrahydrothieno[2,3-b]quinoline-2-carboxamide] | 3.22
22 | CC(C)(C)[C@H]1CCc2nc3sc(C(=O)N[C@H](CCN4CCC(CO)CC4)c4ccccc4)cc3cc2C1 [Example 255, (6S)-6-tert-butyl-N-{(1R)-3-[4-(hydroxymethyl)piperidin-1-yl]-1-phenylpropyl}-5,6,7,8-tetrahydrothieno[2,3-b]quinoline-2-carboxamide] | 2.93
23 | CC(C)(C)[C@H]1CCc2nc3sc(C(=O)N[C@H](CCN4CC(O)C4)c4ccccc4)cc3cc2C1 [Example 256, (6S)-6-tert-butyl-N-[(1R)-3-(3-hydroxyazetidin-1-yl)-1-phenylpropyl]-5,6,7,8-tetrahydrothieno[2,3-b]quinoline-2-carboxamide] | 3.1
